The source of these data is the METLIN SMRT retention time set (Domingo-Almenara et al. 2019).

The data set in a line: gradient 5% acetonitrile 3 min, to 50% in 2 min, to 85% in 15 min, held 3 min, 100 µL/min. The settings on record: column: Zorbax Extend-C18 2.1 x 50 mm; eluents: water / acetonitrile, 0.1% formic acid. The method, boiled down: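 Each retention time is based on an adduct peak selected computationally and verified by manual inspection. Measurements used HPLC–quadrupole time-of-flight mass spectrometry in positive and negative ionization mode on mixtures of ~100 pure standards. Chromatography ran on a Zorbax Extend-C18 column (2.1 × 50 mm, 1.8 μm) at 100 μL/min with water and acetonitrile, each containing 0.1% formic acid, and dead and dwell volumes of 40 μL and 900 μL.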
The compound `Cc1ccc(-c2ccc(=O)n(Cc3noc(C(=O)NCCc4ccc(S(N)(=O)=O)cc4)n3)n2)cc1` displayed an RP-LC retention time of 781 s.

In the case of `CCn1cc(C(CNC(=O)Nc2cccc(SC)c2)c2cccnc2)c2ccccc21` (configuration not stated), the RP-LC retention time was found to be 786 s.

Regarding `COC(=O)c1ccc(NC(=O)N2CCCC2c2ccc(F)cc2)cc1` (configuration not stated), the RP-LC retention time came to 919 s.

`Cc1ccc2cc(CN3CCC4(CCC4O)CC3)c(=O)[nH]c2c1` (configuration not stated) registered an RP-LC retention time of 590 s.

As for `CCn1nccc1C(=O)NCc1cccnc1OC`, the RP-LC retention time amounted to 662 s.

As for `O=C(C1CCCO1)N1CCC(CCOc2ccccc2)CC1` (configuration not stated), the RP-LC retention time stood at 844 s.

Take `CCOc1ccc(NC(=O)Cn2nc3c4sc(N(C)C)nc4ncn3c2=O)cc1`: the RP-LC retention time was 692 s.

Consider `O=C(Cn1nc2n(c1=O)CCCC2)NCc1ccc(F)cc1`, for which the RP-LC retention time came out at 642 s.

For the compound `O=C(CSc1nc2ccsc2c(=O)n1-c1ccc(F)cc1)Nc1ncn[nH]1`, the RP-LC retention time stood at 667 s.

Compound `COC(=O)C1=CN(c2cc(OC)cc(OC)c2)c2cc(F)ccc2S1(=O)=O` had an RP-LC retention time of 904 s.

The compound `COc1ccccc1N1CCN(CCNC(=O)Cc2ccc(Cl)cc2)CC1` displayed an RP-LC retention time of 572 s.

For the compound `CCCC(=O)O[C@]1(C(=O)CO)CC[C@H]2[C@@H]3CCC4=CC(=O)CC[C@]4(C)[C@H]3[C@@H](O)C[C@@]21C`, the RP-LC retention time amounted to 1010 s.

As to `CCN1C(=O)COc2ccc(-c3noc(C4(c5ccccc5)CC4)n3)cc21`, the RP-LC retention time worked out at 991 s.

The compound `N#Cc1ccc(Cl)cc1NC(=O)C1CCN(c2ccc(-c3cccs3)nn2)CC1` came in with an RP-LC retention time of 702 s.

`CC(C)c1cccc2sc(NC(=O)C3CCCN(S(C)(=O)=O)C3)nc12` (configuration not stated) displayed an RP-LC retention time of 965 s.

Consider `CCOc1ccc(Cc2nc(-c3ccc4c(c3)nc(C)c(=O)n4C)no2)cc1OCC`, for which the RP-LC retention time was determined as 970 s.

`O=C(Cn1nc(Cc2cccnc2)c2ccccc2c1=O)NCC1COc2ccccc2O1` (configuration not stated) came in with an RP-LC retention time of 640 s.

For `CCOc1ccc(NC(=O)CSc2nccc(N3CCN(c4cccc(OC)c4)CC3)n2)cc1`, the RP-LC retention time amounted to 765 s.

In turn, `Cc1nn(CC(=O)N2CCCC2)c(=O)c2nc(C(C)C)sc12` yielded an RP-LC retention time of 680 s.

As for `CCN1C(=O)c2c(C(=O)NCCc3ccccc3)ncn2CC1(C)C(=O)NC1CCCC1` (configuration not stated), the RP-LC retention time was 756 s.

Turning to `Cc1ccc(-n2nc3c(N4CCCC(C(=O)N5CCc6ccccc65)C4)nnc(C)c3c2C)cc1` (configuration not stated), the RP-LC retention time was 830 s.

In turn, `CCn1c(N2CCCC(C(=O)NCc3cccc(C)c3)C2)cc(=O)n(C)c1=O` (configuration not stated) showed an RP-LC retention time of 824 s.

The compound `CCc1ccc(NC(=O)N2CCCC2c2cc(C)on2)cc1` (configuration not stated) registered an RP-LC retention time of 845 s.

Compound `COCCCNC(=O)C1CN(C(=O)c2ccccc2)CC12CCCCC2` (configuration not stated) showed an RP-LC retention time of 571 s.

`O=C(c1ccc2c(c1)N(Cc1ccc(F)cc1)C(=O)CO2)N1CCN(c2ccccn2)CC1` registered an RP-LC retention time of 639 s.

In turn, `Cc1ccc(-c2nc3cccnc3n2CCCNC(=O)Nc2ccc3c(c2)OCCO3)cc1` displayed an RP-LC retention time of 698 s.

As for `C=CCN(CC=C)C(=O)Cn1c(C)c(Cc2ccccc2)c(=O)n2nc(-c3ccccc3)nc12`, the RP-LC retention time was 1040 s.

The compound `COc1ccc(NC(=O)N2CCC3(CC2)N=C(c2cccc(Cl)c2)C(=O)N3)c(OC)c1` displayed an RP-LC retention time of 856 s.

`CC1=C(c2ccc(F)cc2)S(=O)(=O)N=C1N1CCCN(C(=O)c2cccnc2)CC1` returned an RP-LC retention time of 713 s.

Compound `CCOc1ccc(NC(=O)Cn2nc3c(Oc4ccccc4)nccn3c2=O)cc1` gave an RP-LC retention time of 822 s.

For the compound `Cc1ccc(C)c(S(=O)(=O)N2CCC3(CC2)NCCN=C3NCc2cc(F)cc(F)c2)c1`, the RP-LC retention time worked out at 774 s.

`Cc1ccccc1Oc1nccn2c(=O)n(CC(=O)Nc3ccc(F)cc3F)nc12` had an RP-LC retention time of 829 s.

Regarding `COc1ccc2oc(-c3csc(NC(=O)c4ccc([N+](=O)[O-])s4)n3)cc2c1`, the RP-LC retention time worked out at 1110 s.

The compound `O=C(c1cn(-c2ccc(-c3nc(C4CC4)no3)cn2)cn1)N1CCCCC1` yielded an RP-LC retention time of 864 s.

`Cn1cc(S(=O)(=O)N2CCCCC2)cc1C(=O)Nc1ccc(F)c(Cl)c1` registered an RP-LC retention time of 1100 s.

For `Cn1nc(CC(=O)Nc2ccccc2Br)c2ccccc2c1=O`, the RP-LC retention time turned out to be 774 s.

Turning to `COc1ccc(OC)c(S(=O)(=O)Nc2ccc(-c3cn4ccc(C)nc4n3)cc2)c1`, the RP-LC retention time stood at 642 s.

In turn, `CSc1cccc(NC(=O)Cn2cccc(-c3nc(-c4ccc(Cl)cc4)no3)c2=O)c1` showed an RP-LC retention time of 1020 s.

`O=C(Nc1ccc2c(c1)OCO2)c1c(O)c2ccccc2n(-c2ccccc2)c1=O` returned an RP-LC retention time of 858 s.

The compound `O=C(NC1CCN(c2cc(N3CCOCC3)cnn2)C1)C1CCCC1` (configuration not stated) came in with an RP-LC retention time of 548 s.

`CCN1CCN(c2cc(C)c3cc(NC(=S)NCc4ccc(F)cc4Cl)ccc3n2)CC1` came in with an RP-LC retention time of 657 s.

`CN(C)S(=O)(=O)N1CCCC(c2nc(-c3ccccc3)no2)CCNC(=O)CC1` (configuration not stated) yielded an RP-LC retention time of 782 s.

Compound `O=C(NCc1ccc(Cl)cc1)c1nc(-c2ccncc2)cs1` had an RP-LC retention time of 687 s.

Take `Cc1cc(C)cc(C(=O)NC(c2ccccc2)c2nnc(N3CCCC3)o2)c1` (configuration not stated): the RP-LC retention time was determined as 868 s.

`COCCCNC(=O)C1CCN(S(=O)(=O)c2ccc3c(c2)NC(=O)CO3)CC1` gave an RP-LC retention time of 627 s.

`CCCN1CCc2cc(O)cc3c2[C@H]1Cc1ccc(O)c(O)c1-3` had an RP-LC retention time of 646 s.

Compound `Cc1cc(C)nc(N2CCN(c3cc(C)nc4c(C)c(-c5ccc(Cl)cc5)nn34)CC2)n1` displayed an RP-LC retention time of 1020 s.

The compound `O=C(NCC1CCN(C(=O)c2cc3ccccc3o2)CC1)C(=O)Nc1cccnc1` had an RP-LC retention time of 601 s.

The compound `O=C(c1ccsc1)N1CCCC(c2nncn2-c2ccccc2)C1` (configuration not stated) returned an RP-LC retention time of 667 s.

For `Cc1ccc(-c2c(N3CCN(c4ccccn4)CC3)c(=O)c2=O)cc1`, the RP-LC retention time worked out at 660 s.

In turn, `O=C(CN1C(=O)COc2ccc(C(=O)N3CCCC3)cc21)N1CCc2ccccc2C1` displayed an RP-LC retention time of 721 s.

With `O=C(Cn1nc(C(=O)N2CCCC2)c2ccccc21)NCc1ccccc1Cl`, the RP-LC retention time was found to be 824 s.

Compound `Cc1ccc(Cn2nnc(C(=O)NCc3ccco3)c2-n2cccc2)cc1` had an RP-LC retention time of 1010 s.

In turn, `Cc1cc(C)cc(Nc2c(-c3ccc4c(c3)OCO4)nc3cnccn23)c1` displayed an RP-LC retention time of 984 s.

The compound `COC(=O)c1c(NC(=O)CN2C(=O)CCC2=O)sc(Cc2ccc3c(c2)OCO3)c1C` returned an RP-LC retention time of 864 s.

For `COc1ccccc1CCNC(=O)Cn1cc(S(=O)(=O)c2ccccc2)c2ccccc21`, the RP-LC retention time came to 898 s.

Compound `O=C(CCc1nnc2c3cc(-c4ccc(F)cc4)nn3ccn12)NCCN1CCCC1` returned an RP-LC retention time of 605 s.

For `Cc1ccc(-n2nc(N3CCN(C(=O)c4ccc(Br)o4)CC3)ccc2=O)cc1C`, the RP-LC retention time amounted to 875 s.

For `Cc1ccc(-c2nnc(N3CCC(C(=O)NC4CCCCCC4)CC3)o2)cc1`, the RP-LC retention time was determined as 949 s.

The compound `Cn1nc(-c2nnc(-c3ccccc3)o2)c2c1CCN(S(=O)(=O)c1cccc3cccnc13)C2` returned an RP-LC retention time of 857 s.

Compound `CCOC(=O)c1cn(Cc2ccc(C)cc2)c2nc(C)ccc2c1=O` yielded an RP-LC retention time of 861 s.

Compound `CCOC(=O)c1c(C)[nH]c(C(=O)N2CCCC(C(=O)NCCN3CCOCC3)C2)c1C` (configuration not stated) registered an RP-LC retention time of 593 s.

The compound `CCc1ccccc1NC(=O)CSc1cc(N2CCN(c3ccccc3OC)CC2)ncn1` registered an RP-LC retention time of 1040 s.

Turning to `COc1ccc(C)cc1NC(=O)C1CCCN(S(=O)(=O)c2c[nH]c(C(=O)N3CCCC3)c2)C1` (configuration not stated), the RP-LC retention time came out at 824 s.

For `CCN1CCn2cc(C(=O)NCc3cc(C)ccc3C)nc2C1`, the RP-LC retention time is 592 s.

`Cc1c(Cl)cccc1Nc1c(-c2ccc(Cl)cc2)nc2cnccn12` showed an RP-LC retention time of 1120 s.

For `O=C(Cn1nc(S(=O)(=O)c2cccc(F)c2)ccc1=O)N1CCN(c2ccc(F)cc2)CC1`, the RP-LC retention time came to 882 s.

As to `CCn1cc(S(=O)(=O)N2C[C@@H](COC)[C@H](c3ccccn3)C2)cn1`, the RP-LC retention time was 625 s.

With `COc1ccc(S(=O)(=O)CCc2nc(-c3cccc(-c4ccnn4C)c3)no2)cc1`, the RP-LC retention time was determined as 866 s.

On to `O=C(NC1CC1)[C@@H]1C[C@H](Oc2cccnc2)CN1C(=O)c1cnccn1`, for which the RP-LC retention time was 526 s.

Turning to `O=C(c1cccs1)N1CCC2(CC1)NC(=O)N(Cc1ccc(F)cc1)C2=O`, the RP-LC retention time was found to be 764 s.

As to `O=C(Nc1cc(F)cc(F)c1)c1c(O)c2cccnc2n(-c2ccc(F)cc2)c1=O`, the RP-LC retention time worked out at 918 s.

As for `Cn1nc(N2CCCC(NS(=O)(=O)c3cccc(Cl)c3)C2)ccc1=O` (configuration not stated), the RP-LC retention time is 775 s.

Compound `COC[C@@H](NC(C)=O)C(=O)NCc1ccccc1` gave an RP-LC retention time of 641 s.

`CS(=O)(=O)NC1(CC2CC2)CCN(Cc2cn[nH]c2-c2ccc(F)cc2)CC1` displayed an RP-LC retention time of 623 s.

In turn, `CC(C)c1nncn1C1CCN(S(=O)(=O)Cc2cccc(Cl)c2)CC1` returned an RP-LC retention time of 736 s.

In turn, `Cc1nnc(SCC(=O)Nc2nc(-c3ccccc3)ns2)s1` yielded an RP-LC retention time of 852 s.
